Experimental data reported in patent US8063065B2, “Azaindazole compounds as CCR1 receptor antagonists” (Boehringer Ingelheim International GmbH, priority 2008, dated 2011).

Molecular target: T1, CCR1 (Homo sapiens, UniProt P32246)
T1 sequence (P32246 1-355): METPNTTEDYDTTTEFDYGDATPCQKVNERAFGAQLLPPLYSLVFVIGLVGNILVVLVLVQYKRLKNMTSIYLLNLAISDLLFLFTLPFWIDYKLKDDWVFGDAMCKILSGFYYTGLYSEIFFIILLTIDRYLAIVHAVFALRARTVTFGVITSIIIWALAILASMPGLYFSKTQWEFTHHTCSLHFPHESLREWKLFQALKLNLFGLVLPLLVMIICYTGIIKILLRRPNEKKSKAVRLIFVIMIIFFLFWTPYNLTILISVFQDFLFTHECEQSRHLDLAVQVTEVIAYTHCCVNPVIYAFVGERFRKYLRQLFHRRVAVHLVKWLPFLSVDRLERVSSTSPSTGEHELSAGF
Assay: Method B: calcium flux in CCR1 transfected cells (Calcium 4 dye, […] FDSS6000), block of the CCR1/MIP-1α interaction
Assay type: cell-based
Details: Method B: Calcium 4 dye, MIP-1alpha at EC80
How it was run: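 Calcium flux on an FDSS6000 was triggered by MIP-1α at its EC80 in stably CCR1/G-alpha-16-expressing non-adherent cells. Before this, Calcium 4-loaded cells were preincubated with compound in HBSS, 20 mM HEPES pH 7.4, 1% DMSO: 30 min at 37 C plus 30 min at room temperature. Ten 4-fold doses began at 3,000 nM, with ±MIP-1α DMSO wells as controls.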

SMILES	IC50 [nM]
CC[C@H](NC(=O)c1cncc2c1cnn2-c1ccc(F)cc1)c1cc(S(C)(=O)=O)ccn1 [1-(4-Fluorophenyl)-1H-pyrazolo[3,4-c]pyridine-4-carboxylic acid [(S)-1-(4-methanesulfonyl-pyridin-2-yl)-propyl]-amide]	0.8
CC[C@H](NC(=O)c1cncc2c1cnn2-c1ccc(F)cc1)c1nc(S(C)(=O)=O)cs1 [1-(4-Fluorophenyl)-1H-pyrazolo[3,4-c]pyridine-4-carboxylic acid [(S)-1-(4-methanesulfonyl-thiazol-2-yl)-propyl]-amide]	0.3
CC[C@H](NC(=O)c1cncc2c1cnn2-c1ccc(F)cc1)c1cc(S(C)(=O)=O)cs1 [1-(4-Fluorophenyl)-1H-pyrazolo[3,4-c]pyridine-4-carboxylic acid [(S)-1-(4-methanesulfonyl-thiophen-2-yl)-propyl]-amide]	0.1
CC[C@H](NC(=O)c1cncc2c1cnn2-c1ccc(F)cc1)c1nc(C(=O)NC)cs1 [1-(4-Fluorophenyl)-1H-pyrazolo[3,4-c]pyridine-4-carboxylic acid [(S)-1-(4-methylcarbamoyl-thiazol-2-yl)-propyl]-amide]	3
CC[C@H](NC(=O)c1cncc2c1cnn2-c1ccc(F)cc1)c1ccc(Br)s1 [1-(4-Fluorophenyl)-1H-pyrazolo[3,4-c]pyridine-4-carboxylic acid [(S)-1-(5-bromo-thiophen-2-yl)-propyl]-amide]	0.6
CCS(=O)(=O)c1cncc([C@H](C)NC(=O)c2cncc3c2cnn3-c2ccc(F)cc2)c1 [1-(4-Fluorophenyl)-1H-pyrazolo[3,4-c]pyridine-4-carboxylic acid [(S)-1-(5-ethanesulfonyl-pyridin-3-yl)-ethyl]-amide]	4
CC[C@H](NC(=O)c1cncc2c1cnn2-c1ccc(F)cc1)c1c[nH]c(S(C)(=O)=O)c1 [1-(4-Fluorophenyl)-1H-pyrazolo[3,4-c]pyridine-4-carboxylic acid [(S)-1-(5-methanesulfonyl-1H-pyrrol-3-yl)-propyl]-amide]	0.9
CC[C@H](NC(=O)c1cncc2c1cnn2-c1ccc(F)cc1)c1ccc(S(C)(=O)=O)o1 [1-(4-Fluorophenyl)-1H-pyrazolo[3,4-c]pyridine-4-carboxylic acid [(S)-1-(5-methanesulfonyl-furan-2-yl)-propyl]-amide]	0.4
CC[C@H](NC(=O)c1cncc2c1cnn2-c1ccc(F)cc1)c1ccc(S(C)(=O)=O)s1 [1-(4-Fluorophenyl)-1H-pyrazolo[3,4-c]pyridine-4-carboxylic acid [(S)-1-(5-methanesulfonyl-thiophen-2-yl)-propyl]-amide]	0.2
CC[C@H](NC(=O)c1cncc2c1cnn2-c1ccc(F)cc1)c1csc(S(C)(=O)=O)c1 [1-(4-Fluorophenyl)-1H-pyrazolo[3,4-c]pyridine-4-carboxylic acid [(S)-1-(5-methanesulfonyl-thiophen-3-yl)-propyl]-amide]	0.3
CC[C@H](NC(=O)c1cncc2c1cnn2-c1ccc(F)cc1)c1cncc(S(N)(=O)=O)c1 [1-(4-Fluorophenyl)-1H-pyrazolo[3,4-c]pyridine-4-carboxylic acid [(S)-1-(5-sulfamoyl-pyridin-3-yl)-propyl]-amide]	0.3
CC[C@H](NC(=O)c1cncc2c1cnn2-c1ccc(F)cc1)c1cccc(Br)n1 [1-(4-Fluorophenyl)-1H-pyrazolo[3,4-c]pyridine-4-carboxylic acid [(S)-1-(6-bromopyridin-2-yl)-propyl]-amide]	0.2
CC[C@H](NC(=O)c1cncc2c1cnn2-c1ccc(F)cc1)c1ccc(S(=O)(=O)NC2CC2)nc1 [1-(4-Fluorophenyl)-1H-pyrazolo[3,4-c]pyridine-4-carboxylic acid [(S)-1-(6-cyclopropylsulfamoyl-pyridin-3-yl)-propyl]-amide]	0.2
CCS(=O)(=O)c1cccc([C@H](C)NC(=O)c2cncc3c2cnn3-c2ccc(F)cc2)n1 [1-(4-Fluorophenyl)-1H-pyrazolo[3,4-c]pyridine-4-carboxylic acid [(S)-1-(6-ethanesulfonyl-pyridin-2-yl)-ethyl]-amide]	14
CC[C@H](NC(=O)c1cncc2c1cnn2-c1ccc(F)cc1)c1cccc(S(=O)(=O)CC)n1 [1-(4-Fluorophenyl)-1H-pyrazolo[3,4-c]pyridine-4-carboxylic acid [(S)-1-(6-ethanesulfonyl-pyridin-2-yl)-propyl]-amide]	0.5
CCS(=O)(=O)c1ccc([C@H](C)NC(=O)c2cncc3c2cnn3-c2ccc(F)cc2)cn1 [1-(4-Fluorophenyl)-1H-pyrazolo[3,4-c]pyridine-4-carboxylic acid [(S)-1-(6-ethanesulfonyl-pyridin-3-yl)-ethyl]-amide]	6

SMILES	IC50 [nM]
CC[C@H](NC(=O)c1cncc2c1cnn2-c1ccc(F)cc1)c1ccc(S(=O)(=O)CC)nc1 [1-(4-Fluorophenyl)-1H-pyrazolo[3,4-c]pyridine-4-carboxylic acid [(S)-1-(6-ethanesulfonyl-pyridin-3-yl)-propyl]-amide]	0.3
C[C@H](NC(=O)c1cncc2c1cnn2-c1ccc(F)cc1)c1cc(S(C)(=O)=O)[nH]c(=O)c1 [1-(4-Fluorophenyl)-1H-pyrazolo[3,4-c]pyridine-4-carboxylic acid [(S)-1-(6-methanesulfonyl-2-oxo-1,2-dihydropyridin-4-yl)-ethyl]-amide]	3
CC[C@H](NC(=O)c1cncc2c1cnn2-c1ccc(F)cc1)c1cc(S(C)(=O)=O)[nH]c(=O)c1 [1-(4-Fluorophenyl)-1H-pyrazolo[3,4-c]pyridine-4-carboxylic acid [(S)-1-(6-methanesulfonyl-2-oxo-1,2-dihydropyridin-4-yl)-propyl]-amide]	0.3
CC[C@H](NC(=O)c1cncc2c1cnn2-c1ccc(F)cc1)c1cccc(S(C)(=O)=O)n1 [1-(4-Fluorophenyl)-1H-pyrazolo[3,4-c]pyridine-4-carboxylic acid [(S)-1-(6-methanesulfonyl-pyridin-2-yl)-propyl]-amide]	0.2
CCC[C@H](NC(=O)c1cncc2c1cnn2-c1ccc(F)cc1)c1ccc(S(C)(=O)=O)nc1 [1-(4-Fluorophenyl)-1H-pyrazolo[3,4-c]pyridine-4-carboxylic acid [(S)-1-(6-methanesulfonyl-pyridin-3-yl)-butyl]-amide]	0.4
CC[C@H](NC(=O)c1cncc2c1cnn2-c1ccc(F)cc1)c1ccc(S(C)(=O)=O)nc1 [1-(4-Fluorophenyl)-1H-pyrazolo[3,4-c]pyridine-4-carboxylic acid [(S)-1-(6-methanesulfonyl-pyridin-3-yl)-propyl]-amide]	1
C[C@H](NC(=O)c1cncc2c1cnn2-c1ccc(F)cc1)c1cccc(S(N)(=O)=O)n1 [1-(4-Fluorophenyl)-1H-pyrazolo[3,4-c]pyridine-4-carboxylic acid [(S)-1-(6-sulfamoyl-pyridin-2-yl)-ethyl]-amide]	15
CC[C@H](NC(=O)c1cncc2c1cnn2-c1ccc(F)cc1)c1cccc(S(N)(=O)=O)n1 [1-(4-Fluorophenyl)-1H-pyrazolo[3,4-c]pyridine-4-carboxylic acid [(S)-1-(6-sulfamoyl-pyridin-2-yl)-propyl]-amide]	0.3
CC[C@H](NC(=O)c1cncc2c1cnn2-c1ccc(F)cc1)[C@@H]1CCN(S(C)(=O)=O)[C@@H](C(N)=O)C1 [1-(4-Fluorophenyl)-1H-pyrazolo[3,4-c]pyridine-4-carboxylic acid [(S)-1-((2R,4R)-2-carbamoyl-1-methanesulfonyl-piperidin-4-yl)-propyl]-amide]	10
CC[C@H](NC(=O)c1cncc2c1cnn2-c1ccc(F)cc1)[C@@H]1CCN(S(C)(=O)=O)[C@H](C(N)=O)C1 [1-(4-Fluorophenyl)-1H-pyrazolo[3,4-c]pyridine-4-carboxylic acid [(S)-1-((2S,4R)-2-carbamoyl-1-methanesulfonyl-piperidin-4-yl)-propyl]-amide]	12
CS(=O)(=O)c1cc([C@H](CCO)NC(=O)c2cncc3c2cnn3-c2ccc(F)cc2)ccn1 [1-(4-Fluorophenyl)-1H-pyrazolo[3,4-c]pyridine-4-carboxylic acid [(S)-3-hydroxy-1-(2-methanesulfonyl-pyridin-4-yl)-propyl]-amide]	12
CCC(NC(=O)c1cncc2c1cnn2-c1ccc(F)cc1)c1cnc(N(C)S(C)(=O)=O)nc1 (stereo not shown) [1-(4-Fluorophenyl)-1H-pyrazolo[3,4-c]pyridine-4-carboxylic acid {1-[2-(methanesulfonyl-methyl-amino)-pyrimidin-5-yl]-propyl}-amide]	7
CCC(NC(=O)c1cncc2c1cnn2-c1ccc(F)cc1)c1nc(C(=O)NCC(N)=O)c(C)o1 (stereo not shown) [1-(4-Fluorophenyl)-1H-pyrazolo[3,4-c]pyridine-4-carboxylic acid {1-[4-(carbamoylmethyl-carbamoyl)-5-methyl-oxazol-2-yl]-propyl}-amide]	25
CCC(NC(=O)c1cncc2c1cnn2-c1ccc(F)cc1)c1nc(C(=O)NCC#N)c(C)o1 (stereo not shown) [1-(4-Fluorophenyl)-1H-pyrazolo[3,4-c]pyridine-4-carboxylic acid {1-[4-(cyanomethyl-carbamoyl)-5-methyl-oxazol-2-yl]-propyl}-amide]	18
CCC(NC(=O)c1cncc2c1cnn2-c1ccc(F)cc1)c1nc(C(=O)NCC#N)co1 (stereo not shown) [1-(4-Fluorophenyl)-1H-pyrazolo[3,4-c]pyridine-4-carboxylic acid {1-[4-(cyanomethyl-carbamoyl)-oxazol-2-yl]-propyl}-amide]	25
